Results as given in patent US20080076750A1, “Azetidinone Derivatives and Methods of Use Thereof” (priority 2006, published 2008).
pIC50, pKi: −log10 of the molar value.

biological target: T1, TRPV1 (Homo sapiens, UniProt Q8NER1); test: TRPV1 Screening Assay (FLIPR); assay type: cell-based; conditions: HEK293-TetOFF-TRPV1, PMA, read-out: VR1 flipr PMA IC50
T1 construct: expressed in transfected cells; host or cells: HEK293-Tet-OFF
T1 sequence (Q8NER1 whole entry, species assumed): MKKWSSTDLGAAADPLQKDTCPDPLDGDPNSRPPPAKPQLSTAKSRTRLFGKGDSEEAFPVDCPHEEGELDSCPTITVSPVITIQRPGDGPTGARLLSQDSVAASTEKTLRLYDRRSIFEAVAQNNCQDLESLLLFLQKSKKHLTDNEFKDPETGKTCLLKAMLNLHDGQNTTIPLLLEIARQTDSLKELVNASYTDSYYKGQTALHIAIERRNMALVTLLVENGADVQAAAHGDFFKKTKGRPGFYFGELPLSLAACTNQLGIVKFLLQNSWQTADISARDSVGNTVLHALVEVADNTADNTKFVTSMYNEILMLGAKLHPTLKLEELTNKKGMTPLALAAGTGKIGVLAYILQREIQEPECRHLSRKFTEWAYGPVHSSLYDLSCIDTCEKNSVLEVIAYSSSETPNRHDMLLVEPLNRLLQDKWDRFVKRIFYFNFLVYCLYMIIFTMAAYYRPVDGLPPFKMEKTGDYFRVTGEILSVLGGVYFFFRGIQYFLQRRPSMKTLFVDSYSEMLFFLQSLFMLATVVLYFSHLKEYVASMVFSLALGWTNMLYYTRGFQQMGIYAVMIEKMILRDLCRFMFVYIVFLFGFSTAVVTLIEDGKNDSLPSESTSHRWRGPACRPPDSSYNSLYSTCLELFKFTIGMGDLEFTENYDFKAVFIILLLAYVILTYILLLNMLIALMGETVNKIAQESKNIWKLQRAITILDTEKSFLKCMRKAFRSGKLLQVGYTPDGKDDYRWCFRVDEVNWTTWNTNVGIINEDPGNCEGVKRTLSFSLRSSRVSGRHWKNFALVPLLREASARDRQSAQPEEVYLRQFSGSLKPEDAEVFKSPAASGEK

Row | pIC50 | Compound
1 | 6.81 | CC(C)c1ccc(NC(=O)N2CCC3(CC2)C(=O)N(c2cncnc2)C3c2ccccc2)cc1 (stereo not shown)
2 | 6.63 | O=C(Nc1cccc2ccccc12)N1CCC2(CC1)C(=O)N(c1ccccc1)C2c1ccccn1 (stereo not shown)
3 | 6.60 | CC(C)c1ccc(NC(=O)N2CCC3(CC2)C(=O)N(c2cncnc2)C3c2ccccn2)cc1 (stereo not shown)
4 | 7.00 | CC(C)c1ccc(NC(=O)N2CCC3(CC2)C(=O)N(c2ccccc2)C3c2ccccc2)cc1 (stereo not shown) [drawing 427]
5 | 7.48 | O=C(Nc1ccc(C(F)(F)F)cc1)N1CCC2(CC1)C(=O)N(c1ccccc1)C2c1ccccn1 (stereo not shown)

biological target: NPC1L1 (Rattus norvegicus, UniProt Q6T3U3); test: NPC1L1 Binding Assay, rat; conditions: competition with BODIPY-labeled glucuronidated ezetimibe

Row | pKi | Compound
6 | 5.46 | Cc1ccc(C)c(NC(=O)N2CCC3(CC2)C(=O)N(c2ccccc2)C3c2ccccc2)c1 (stereo not shown)
7 | 5.97 | Cc1cccc(Cl)c1NC(=O)N1CCC2(CC1)C(=O)N(c1ccccc1)C2c1ccccc1 (stereo not shown) [drawing 443]
8 | 5.93 | Cc1cccc(Cl)c1NC(=O)N1CCC2(CC1)C(=O)N(c1ccccc1)C2c1ccccc1 (stereo not shown) [drawing 434]
9 | 5.18 | O=C(Nc1c(F)cccc1F)N1CCC2(CC1)C(=O)N(c1ccccc1)C2c1ccccc1 (stereo not shown)
10 | 5.44 | Cc1c(Cl)cccc1NC(=O)N1CCC2(CC1)C(=O)N(c1ccccc1)C2c1ccccc1 (stereo not shown) [drawing 435]
11 | 5.30 | O=C(Nc1cccc(Cl)c1Cl)N1CCC2(CC1)C(=O)N(c1ccccc1)C2c1ccccc1 (stereo not shown)

biological target: T2, human NPC1L1 (Homo sapiens, UniProt Q9UHC9); test: NPC1L1 Binding Assay, human; conditions: HEK-293 cells expressing human NPC1L1; competition with 250 nM BODIPY-labeled glucuronidated ezetimibe, 4 h at 37° C.
T2 construct: expressed in transfected cells; host or cells: HEK-293 (geneticin selection)
T2 sequence (Q9UHC9 22-1359): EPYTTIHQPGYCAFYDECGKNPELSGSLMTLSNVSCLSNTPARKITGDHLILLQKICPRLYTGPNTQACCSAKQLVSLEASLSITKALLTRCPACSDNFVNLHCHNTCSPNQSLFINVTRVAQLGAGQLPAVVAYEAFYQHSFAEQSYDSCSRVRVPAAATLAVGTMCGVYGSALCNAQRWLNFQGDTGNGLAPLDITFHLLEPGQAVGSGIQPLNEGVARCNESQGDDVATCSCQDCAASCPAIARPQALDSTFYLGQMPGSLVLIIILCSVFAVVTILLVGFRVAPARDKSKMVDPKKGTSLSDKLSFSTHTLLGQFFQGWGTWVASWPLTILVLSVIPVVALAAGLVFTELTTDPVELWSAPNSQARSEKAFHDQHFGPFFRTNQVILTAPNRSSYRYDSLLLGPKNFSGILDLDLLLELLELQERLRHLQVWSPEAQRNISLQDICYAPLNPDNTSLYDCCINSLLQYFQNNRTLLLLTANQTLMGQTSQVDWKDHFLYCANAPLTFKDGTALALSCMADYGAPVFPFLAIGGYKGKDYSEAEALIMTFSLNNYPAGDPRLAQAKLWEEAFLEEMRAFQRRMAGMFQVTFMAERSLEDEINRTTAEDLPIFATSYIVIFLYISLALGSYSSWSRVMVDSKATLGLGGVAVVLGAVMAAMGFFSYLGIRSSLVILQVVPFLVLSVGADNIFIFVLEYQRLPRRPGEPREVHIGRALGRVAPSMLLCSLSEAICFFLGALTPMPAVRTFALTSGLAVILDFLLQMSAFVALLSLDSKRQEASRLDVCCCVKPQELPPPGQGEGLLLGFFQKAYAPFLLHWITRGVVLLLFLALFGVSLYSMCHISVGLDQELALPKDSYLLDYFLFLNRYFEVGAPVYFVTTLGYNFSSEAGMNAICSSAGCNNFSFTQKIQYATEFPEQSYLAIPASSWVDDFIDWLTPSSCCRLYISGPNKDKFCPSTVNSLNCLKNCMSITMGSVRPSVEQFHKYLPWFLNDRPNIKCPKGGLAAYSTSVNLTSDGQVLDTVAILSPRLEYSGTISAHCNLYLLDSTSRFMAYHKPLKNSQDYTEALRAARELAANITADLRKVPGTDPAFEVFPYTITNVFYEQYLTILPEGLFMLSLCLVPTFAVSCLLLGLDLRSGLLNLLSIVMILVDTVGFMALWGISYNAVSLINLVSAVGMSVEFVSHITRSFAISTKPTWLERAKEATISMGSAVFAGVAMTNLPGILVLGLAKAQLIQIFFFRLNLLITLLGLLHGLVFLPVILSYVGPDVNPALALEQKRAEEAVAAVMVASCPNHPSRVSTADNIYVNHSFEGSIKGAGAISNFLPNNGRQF
Description: HEK-293 cells expressing human NPC1L1 were plated into 384-well black/clear plates (BD Biosciences, Bedford Mass.) for binding experiments the following day. Cell growth media (DMEM, 10% fetal calf serum, 1 mg/mL geneticin, 100 Units/mL penicillin) was aspirated. Cell growth media ([…]) containing 250 nM BODIPY-labeled glucuronidated ezetimibe was added to each well. Cell growth media ([…] containing the indicated concentration of compound was then added to the wells unlabeled glucuronidated ezetimibe […]) was used to determine nonspecific binding. The binding reaction was allowed to proceed for 4 h at 37° C. Subsequently the cell growth media was aspired and the cells washed once with PBS. The remaining fluorescent labeled glucuronidated ezetimibe bound to the cells was quantified using a FlexStation plate reader (Molecular Devices, Sunnyvale Calif.) to measure fluorescence intensity. Ki values were determined from competition binding curves (n=4 for each point) using Prism and Activity Base software.

Row | pKi | Compound
12 | 5.41 | Cc1ccc(C)c(NC(=O)N2CCC3(CC2)C(=O)N(c2ccccc2)C3c2ccccc2)c1 (stereo not shown)
13 | 6.00 | Cc1cccc(Cl)c1NC(=O)N1CCC2(CC1)C(=O)N(c1ccccc1)C2c1ccccc1 (stereo not shown) [drawing 443]
14 | 5.64 | Cc1cccc(Cl)c1NC(=O)N1CCC2(CC1)C(=O)N(c1ccccc1)C2c1ccccc1 (stereo not shown) [drawing 434]
15 | 5.01 | O=C(Nc1c(F)cccc1F)N1CCC2(CC1)C(=O)N(c1ccccc1)C2c1ccccc1 (stereo not shown)
16 | 5.42 | Cc1c(Cl)cccc1NC(=O)N1CCC2(CC1)C(=O)N(c1ccccc1)C2c1ccccc1 (stereo not shown) [drawing 435]
17 | 5.18 | O=C(Nc1cccc(Cl)c1Cl)N1CCC2(CC1)C(=O)N(c1ccccc1)C2c1ccccc1 (stereo not shown)

biological target: T1, TRPV1; test: TRPV1 Screening Assay (FLIPR); assay type: cell-based; conditions: HEK293-TetOFF-TRPV1, capsaicin (50 nM final), read-out: VR1 flipr CAPSAICIN IC50
Source text: • 1) Cell line: HEK293-Tet^OFF-TRPV1 • 2) Media: MEM (Invitrogen) • 3) 10% Tet-FBS (Clontech #8630-1) • 4) Fungizone (Gibco #15290-018 (100×)) • 5) Penn/Strep (Gibco #15140-122 (100×)) • 6) Geneticin (Gibco #10131-027 (100×)) • 7) Hygromycin (Clontech #8057-1) • 8) Doxycycline (Clontech #8634-1) • 9) Trypsin/EDTA (Gibco #25200-056) • 10) 100 mm cell culture plates (Falcon #3003) • 11) 96-well poly-D-lysine plates (Fisher #08-774-256) • 12) Hank's Balanced Salt Solution (HBSS) (GIBCO #14025-092) • 13) HEPES Buffer (GIBCO #15630-080) • 14) 30% BSA (Research Organics #1334A) • 15) Probenecid (Sigma P-8761) • 16) Fluo-4, AM (50 μg) (Molecular robes F-23917) • 17) Pluronic F-127 20% (Molecular Probes P-3000). • 18) capsazepine (Sigma C-191) • 19) capsaicin (Sigma M-2028) • 20) compound plates (NUNC #442587) • 21) black pipet tips 96-well FLIPR (Robbins Scientific 1043-24-0) • 22) Additional reagents available from Fisher: methanol, DMSO, NaOH Reagent Preparation: 1) Cells: HEK293-Tet^OFF-TRPV11
• and Doxycycline 2.5 μg/mL final (from a 1000× stock in PBS) • Cells must be fed and/or split every 2-3 days (to maintain transcriptional repression with Doxycycline). • Must be split no more than 1:5 (50-75% confluency) to maintain growth and viability. • Grown on regular tissue culture plates (e.g. Falcon 3003-100 mm) • SpliT-cells via Trypsin/EDTA: incubate with trypsin at room temperature no longer than 5 min (HEK293 cells have a tendency to ball up if over trypsinized). • Two days prior to assay, the cells are split into 96-well plates in cell media in the absence of doxycycline at a concentration of 40,000 cells/well in a volume of 200 μL, 2) FLIPR buffer is prepared fresh:
Add 5 mL of Probenecid Solution, prepared as follows: 710 mg of probenecid (Sigma P-8761) is solubilized in 5 mL of 1 N NaOH, 5 mL of above buffer s added for final volume of 10 mL (of which 5 mL goes back into FLIPR buffer)
Combine 42 μL of dye mixture with 11 mL of FLIPR buffer/96-well plate.
Stock solution of 0.1 M capsaicin is prepared in MeOH (50 mg+1.6 mL MeOH). Store 50 μL aliquots at −80° C.
For assay: • a) Dilute stock by adding 0.8 μL into 1 mL of MeOH (final=80 μM). • b) Add 50 μL of diluted stock to 20 mL of FLIPR buffer (final=0.2 μM) • c) Agonist solution is added 150 μL/well to 96-well plate. • d) Final agonist concentration on cells will be 50 nM. […] Laser is adjusted upwards for an average signal≧10,000/well and less than 10% variability. 7) Compound addition conditions are as follows: • FLIPR setup (dual sequence parameters): • Sequence 1: • First interval 1 sec/60 counts • Second interval 6 sec/50 counts • Fluid addition=50 μL • Pipettor=110 μL • Dispense Speed=30 μL/sec • Sequence 2: • Second interval 1 sec/60 counts • Second interval 6 sec/40 counts • Fluid addition=50 μL • Pipettor height=140 μL • Dispense Speed=50 μL/sec Data Analysis:
1) Data from both additions is reported as Max-Min for each well

Row | pIC50 | Compound
18 | 6.62 | CC(C)c1ccc(NC(=O)N2CCC3(CC2)C(=O)N(c2cncnc2)C3c2ccccc2)cc1 (stereo not shown)
19 | 6.70 | O=C(Nc1cccc2ccccc12)N1CCC2(CC1)C(=O)N(c1ccccc1)C2c1ccccn1 (stereo not shown)
20 | 6.52 | CC(C)c1ccc(NC(=O)N2CCC3(CC2)C(=O)N(c2cncnc2)C3c2ccccn2)cc1 (stereo not shown)
21 | 6.86 | CC(C)c1ccc(NC(=O)N2CCC3(CC2)C(=O)N(c2ccccc2)C3c2ccccc2)cc1 (stereo not shown) [drawing 427]
22 | 7.48 | O=C(Nc1ccc(C(F)(F)F)cc1)N1CCC2(CC1)C(=O)N(c1ccccc1)C2c1ccccn1 (stereo not shown)
